Experimental data reported in PMC8151276, “An Integrated Approach toward NanoBRET Tracers for Analysis of GPCR Ligand Engagement” (Molecules, 2021).

Experiments:
EDNRB = biological target: T1, EDNRB (Homo sapiens, UniProt P24530); test: NanoBRET screen HiBiT-EDNRB in HEK293; assay type: binding; details: EDNRB
T1 construct: purchased Promega (in-house HiBiT-GPCR construct library, NanoBRET)
T1 sequence (P24530 27-442): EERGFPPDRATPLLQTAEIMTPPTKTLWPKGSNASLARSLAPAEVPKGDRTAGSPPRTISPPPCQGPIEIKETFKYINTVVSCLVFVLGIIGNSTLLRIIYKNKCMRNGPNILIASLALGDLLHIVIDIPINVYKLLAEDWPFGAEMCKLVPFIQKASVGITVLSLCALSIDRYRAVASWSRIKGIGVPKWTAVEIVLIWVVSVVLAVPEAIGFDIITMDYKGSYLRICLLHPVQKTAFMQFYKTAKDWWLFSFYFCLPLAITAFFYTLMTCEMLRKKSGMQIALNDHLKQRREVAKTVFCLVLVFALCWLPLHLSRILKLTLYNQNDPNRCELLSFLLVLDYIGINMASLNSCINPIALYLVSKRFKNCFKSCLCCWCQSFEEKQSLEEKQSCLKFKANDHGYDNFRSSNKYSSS
Method: (§1) Each tracer candidate was screened across the entire library of HiBiT-GPCR constructs using NanoBRET as the detection modality. As depicted in Figure 4A, the specificity of interactions was evaluated through decrease in BRET due to competitive displacement of a bound tracer by excess parental compound. Each tracer was analyzed for binding to each HiBiT-GPCR fusion in the absence and in the presence of competing parental compound. Briefly, HEK293 cells were transfected with HiBiT-GPCR constructs diluted into promoterless DNA to reduce expression and maximize translocation to the cell surface. Each tracer candidate was then screened at concentrations of 1 μM and 0.1 μM across cells expressing these fusions. Cells were treated for 1.5 h with tracer either alone or in the presence of 20 μM competing parental compound (i.e., control). BRET was measured upon addition of purified LgBiT and subsequent complementation with HiBiT genetically fused to a GPCR. The specificity of interactions was assessed through a decrease in BRET signal due to competitive displacement of the bound tracer. To further gauge the robustness of these interactions, the fold response over the control (i.e., BRETtracer/BRETcontrol) was calculated. We chose a 1.5-fold response, which translates to ≥7-fold signal over noise as the minimal threshold required to score an interaction as positive.
(§2) HiBiT-GPCR DNA constructs were diluted in 10 mM Tris pH 8 to a final concentration of 0.01 μg/μL, arrayed in 96-well plates and stored at −20 °C. For transfection, HEK293 cells were suspended in Opti-MEM (without phenol red) supplemented with 2% fetal bovine serum (Seradigm) and 100 units/mL penicillin–streptomycin (Gibco) at a final concentration of 220,000 cells/mL and dispensed into white 96-well plates at 90 μL/well. Subsequent transfections and screens were carried using an Agilent Bravo Automated Liquid Handling Platform. First, the 96-well HiBiT DNA arrays were diluted 25-fold in Opti-MEM (without serum or phenol red) to a final concentration of 0.0004 μg/μL and 20 μL of the diluted DNAs were transferred into new 96-well plates. Next, promoterless carrier DNA (1 μg/μL) was diluted 25-fold (0.04 μg/μL) and then dispensed into the diluted arrays at 20 μL/well. Following brief mixing, Viafect transfection reagent (Promega) diluted 16-fold into Opti-MEM was dispensed into the plates at 40 μL/well. After mixing by pipetting, plates were incubated for 10 min on the pipetting station deck. The DNA-transfection reagent complexes were then added to plates containing cells. To facilitate the screen, 10 μL of DNA-transfection reagent complexes were added in duplicates to the top 4 and bottom 4 rows, resulting in two identical 48-well arrays per plate. Plates with transfected cells were incubated for 18–20 h at 37 °C/5% CO2. A screen of each tracer across the entire library using two different concentrations requires duplicate plates of transfected cells. Depending on the number of tracers being screened, transfections can be scaled up using the same ratios. The next day, for each tracer, four 20× screening solutions in tracer dilution buffer (Promega) were prepared: two duplicates at final concentration of 20 μM and two duplicates at a final concentration of 2 μM. […] The four resulting solutions were diluted 4-fold in Opti-MEM without serum or phenol red to generate 5× solutions (5 µM and 0.5 µM tracer +/− 100 μM competing compound). To screen the library, a BioTek MultiFlo FX liquid dispenser was used to dispense 22.5 µL of tracer solution to the top 4 rows and 22.5 µL tracer + competing compound solution to the 4 bottom rows. Plates were briefly mixed on an orbital shaker and incubated for 1.5 h at room temperature. […] Plates were briefly mixed on an orbital shaker and incubated for 15 min to allow complementation.

MTNR1A = biological target: T2, MTNR1A (Homo sapiens, UniProt P48039); test: NanoBRET screen HiBiT-MTNR1A in HEK293; assay type: binding; details: MTNR1A
T2 construct: purchased Promega (in-house HiBiT-GPCR construct library, NanoBRET)
Method: as §1, §2

T2 sequence (P48039 whole entry): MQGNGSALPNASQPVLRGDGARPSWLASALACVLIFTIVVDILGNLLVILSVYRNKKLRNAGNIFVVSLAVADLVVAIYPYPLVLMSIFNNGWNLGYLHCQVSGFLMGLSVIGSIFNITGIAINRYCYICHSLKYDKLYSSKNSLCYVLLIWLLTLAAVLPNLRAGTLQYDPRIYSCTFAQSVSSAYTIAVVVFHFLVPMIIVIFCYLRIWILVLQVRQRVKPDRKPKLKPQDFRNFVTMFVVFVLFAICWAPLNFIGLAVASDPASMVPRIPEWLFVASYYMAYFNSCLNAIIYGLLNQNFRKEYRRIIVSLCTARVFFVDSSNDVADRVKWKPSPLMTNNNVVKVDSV

## CCCn1c(=O)c2[nH]c(-c3ccc(OCC(=O)NCCNC(=O)CCOCCNC(=O)c4ccc(CNC(=O)CCc5ccc6n5[B-](F)(F)[N+]5=C(c7ccc[nH]7)C=CC5=C6)cc4)cc3)nc2n(CCC)c1=O [XAC-3-NB590]
EDNRB; tracer 0.1μM
  NanoBRET Fold Response: 0.92
EDNRB; tracer 1μM
  NanoBRET Fold Response: 1.18
MTNR1A; tracer 0.1μM
  NanoBRET Fold Response: 1.02
MTNR1A; tracer 1μM
  NanoBRET Fold Response: 1.01
